From ChEMBL document CHEMBL1129822, “Thermal atropisomerism of fully functionalized vancomycin CD, DE, and CDE ring systems” (Bioorg Med Chem Lett, 1997)

Tests used:
Type in all cases: ADME
[1] = Half-life at 125 degrees C in DMSO
[2] = The equilibrium constant at 125 degrees C in DMSO
[3] = Half-life at 140 degrees C in DMSO
[4] = The equilibrium constant at 140 degrees C in DMSO
[5] = Half-life at 140 degrees C in ortho dichloro benzene; conditions: ortho-dichlorobenzene
[6] = Half-life at 155 degrees C in DMSO
[7] = The equilibrium constant at 155 degrees C in DMSO
[8] = The equilibrium constant at 140 in ortho dichloro benzene

Row | half-life [1] | k [2] | half-life [3] | k [4] | half-life [5] | half-life [6] | k [7] | k [8] | SMILES
1 | 16.8 min | 0.88 h⁻¹ | 5.52 min | 2.06 h⁻¹ | – | – | – | – | COc1c(O)cc2cc1Oc1ccc(cc1[N+](=O)[O-])[C@@H](O)[C@@H](NC(=O)OC(C)(C)C)C(=O)N[C@@H](CC(N)=O)C(=O)N[C@H]2C(=O)OC(C)(C)C
2 | – | – | 211 min | 0.082 h⁻¹ | 586 min | 63.6 min | 0.27 h⁻¹ | 0.029 h⁻¹ | COC(=O)[C@H]1NC(=O)[C@@H](c2ccc(OC)c(Br)c2)NC(=O)[C@H](NC(=O)OC(C)(C)C)c2cc(O)c(OC)c(c2)Oc2ccc(cc2[N+](=O)[O-])[C@H]1O[Si](C)(C)C(C)(C)C
3 | – | – | 242 min | 0.071 h⁻¹ | 3180 min | – | – | 0.0054 h⁻¹ | COC(=O)[C@H]1NC(=O)[C@@H](c2ccc(OC)c(Br)c2)NC(=O)[C@H](NC(=O)OC(C)(C)C)c2cc(O)c(OC)c(c2)Oc2ccc(cc2Cl)[C@H]1O[Si](C)(C)C(C)(C)C
